Results from patent US11285142B2, “Compositions and methods for identifying and treating dystonia disorders” (DUKE UNIVERSITY, priority 2015, dated 2022).
“Also recorded” adds a separate entry of the source. Structures can show the parent of a compound that is named as a salt. Where two headings read alike, the source gives them in different places.

Columns and labels:
[1] = test system: Flp-In T-REx 293 cells expressing delta-E Torsin1a; assay: Cytotoxicity (cell count, cellular morphology) in the Torsin1a assay cell line; type: cell-based, human; details: for ΔE TorsinA Mislocalization Assay Cytotoxicity EC50: Table 5; for Cytotox CC-v2 (dose response Curve Class) / Cytotox Efficacy / Cytotox Max Resp / AC50: Table 6; for toxicity (cell count, cellular morphology; in words): at effective concentrations; for AC50: read-out: Cytotox AC50
Experimental: (§1) In order to test this model directly, the delta-E Torsin1a cell line was treated with compounds targeting the eIF2-alpha signaling pathway (FIG. 2). […] The following day, serial drug dilutions were prepared at 2× final concentration in assay media containing 10 μg/mL tetracycline and 30 μL of the drug/tetracycline mixture was added to the appropriate wells, while control wells received 30 μL of assay media alone or assay media+10 μg/mL tetracycline (final tetracycline concentration for all wells except negative controls: 5 μg/mL). Cells were then incubated at 37° C./5% CO^2 for 48 hours and fixed, permeabilized, Hoechst stained, and imaged as described above. The range of the Torsin1a localization effect was normalized to the percentage of cells with puncta in vehicle-treated delta-E cell line as the maximum and that in WT cell line as the minimum (FIG. 2, panels c-h). Cell count and EGFP-Torsin1a expression were normalized to their respective values in the vehicle-treated delta-E cell line as the maximum. All dose response data are the average of 4 independent experiments per dose. Untreated control data used for normalization are the average of 24 independent experiments.
(§2) Efficacy is calculated as the magnitude of the pathology correction relative to the mutant Torsin1a pathology. For example an efficacy=−100% would be equivalent to the WT TorsinA phenotype, and 0% would be equivalent to the Mutant TorsinA phenotype. CCv2 refers to the dose response Curve Class annotation, and AC refers to Active Concentration.

[2] = test system: luciferase secretion; assay: C.Luc. Secretion Assay (luciferase secretion, secretory deficits); type: cell-based; details: for C.Luc. Secretion Assay Secretion EC50 / EC50 / Emax: Table 5; for Emax: read-out: C.Luc. Secretion Assay Secretion Max Efficacy; for correction of secretory deficits (in words): orthogonal assays
Experimental: We tested each shRNA for its ability to rescue a previously described defect in luciferase secretion. Chen, P. et al. (2010) Hum. Mol. Genet. 19, 3502-15; Cao, S. et al. (2010) Dis. Model. Mech. 3, 386-96; Barrows, N. J., et al., (2010)J. Biomol. Screen. 15, 735-47.) DYT1 patient data were obtained from 4 independent patient-derived lines and WT data (black bar) from 3 normal healthy control lines. Each line was tested in 5 independent experiments that included 4 technical replicates each (with the exception of SCD data from 3 independent experiments).
(Cao, S. et al. (2010) Dis. Model. Mech. 3, 386-96.) Subsequent testing of additional HIV protease inhibitors supported the activity of this class of compounds and generated favorable structure-activity relationship (SAR) data from which to design improved compounds (Tables 5 and 6). The results with a subset of compounds were also observed in a Luciferase secretion assay (Tables 5 and 6).

[3] = test system: delta-E Torsin1a localization in Flp-In T-REx 293 cells expressing EGFP-delta-E Torsin1a; assay: delta-E Torsin1a mis-localization assay (high-content imaging, % cells with EGFP puncta); type: cell-based, human; details: for ΔE TorsinA Mislocalization Assay Localization EC50 / EC50 / Emax: Table 5; for effect on delta-E Torsin1a localization (in words): delta-E cell line, dose response; for % pathology CC-v2 (dose response Curve Class) / AC50 / % pathology Max Resp / % pathology Efficacy: Table 6; for AC50: AC = Active Concentration, read-out: % pathology AC50; for % pathology Max Resp / % pathology Efficacy: normalized scale; for % pathology Max Resp: WT-TorsinA line 0%, DYT1 mutant line 100% pathology; for % pathology Efficacy: −100% = WT TorsinA phenotype, 0% = Mutant TorsinA phenotype; for EC50: read-out: ΔE TorsinA Mislocalization Assay Localization EC50; for Emax: read-out: ΔE TorsinA Mislocalization Assay Localization Max Efficacy
Experimental: To limit variation in expression levels associated with random integration or transient expression, single copies of either WT or delta-E human TOR1A cDNAs with N-terminal EGFP fusions were inserted at the FRT site in Flp-In™ T-Rex™ 293 cells (Thermo Fisher Scientific #R780-07) via flippase recombinase-mediated cassette exchange according to the manufacturer's recommended protocols.
The cells were maintained at 37° C./5% CO2. All experiments were performed on cells with fewer than 5 passages.
Torsin1a expression was also controlled by tetracycline induction to avoid selective pressure modifying the cellular phenotypes. […] The mutant phenotype was measured as the percentage of cells with one or more EGFP puncta using automated high-content imaging analysis (see infra).
The image analysis algorithm was developed using the Cellomics ArrayScan V CompartmentAnalysisV2 protocol. Hoechst's nuclear staining (Ch1: excitation 350 nm; emission 461 nm) was used for focusing and for cell identification by nuclear size, shape, and intensity. […] Detected cells were gated according to nuclear area, length-to-width ratio, and perimeter-to-area ratio. For the purpose of analysis, cell bodies were defined by a radius of 10 μm from the outer edge of the defined nucleus. Overlapping cells were automatically segmented according to the Cellomics ArrayScanV CompartmentAnalysisV2 object segmentation feature. EGFP fluorescence (Ch2: excitation 488 nm; emission 509 nm) was used for puncta detection. […] Torsin1a puncta were identified using the spot detection feature of the Compartmental AnalysisV2 protocol. The percentage of cells containing one or more puncta was used as the primary metric in this assay.
as §1

[4] = Cytotoxicity (cell count, cellular morphology) in the Torsin1a assay cell line; type: cell-based, human; details: human; for AC50: Table 6, read-out: Cytotox AC50; for EC50 at 48 h: Flp-In T-REx 293 cells inducibly expressing delta-E Torsin1a, Table 5, read-out: ΔE TorsinA Mislocalization Assay Cytotoxicity EC50
Experimental: as §1, §2

With `CC(C)CN(C[C@@H](O)[C@H](Cc1ccccc1)NC(=O)O[C@H]1CCOC1)S(=O)(=O)c1ccc(N)cc1` [Amprenavir] the “ΔE TorsinA Mislocalization Assay Cytotoxicity EC50” value [1] was “None”, the “Cytotox CC-v2 (dose response Curve Class)” value (shortened to “Cytotox CC-v2”) [1] was 4 and the “C.Luc. Secretion Assay Secretion EC50” value [2] was “No Activity”. The “ΔE TorsinA Mislocalization Assay Localization EC50” value [3] was “No Activity”.
For `COC(=O)N[C@H](C(=O)N[C@@H](Cc1ccccc1)[C@@H](O)CN(Cc1ccc(-c2ccccn2)cc1)NC(=O)[C@@H](NC(=O)OC)C(C)(C)C)C(C)(C)C` [Atazanavir], the “ΔE TorsinA Mislocalization Assay Cytotoxicity EC50” value [1] was “None”, the “Cytotox CC-v2” value [1] was 4 and the “C.Luc. Secretion Assay Secretion EC50” value [2] was “No Activity”. For the same molecule, the “ΔE TorsinA Mislocalization Assay Localization EC50” value [3] was “No Activity”.
In the case of `CCN(CC)CCC(=O)N1N=C(c2c(-c3ccccc3)c3cc(Br)ccc3[nH]c2=O)CC1c1ccc(Br)cc1` (stereo not shown) [CCT020312], the “toxicity (cell count, cellular morphology; in words)” value [1] is reported as “highly toxic at effective concentrations” and the “effect on delta-E Torsin1a localization (in words)” value [3] is reported as “dose-dependent reduction”.
For `C[C@H](NC(=O)Cc1cc(F)cc(F)c1)C(=O)N[C@H](C(=O)OC(C)(C)C)c1ccccc1` [DAPT], the “effect on delta-E Torsin1a localization (in words)” value [3] was “no effect”.
In the case of `CC(C)CN(C[C@@H](O)[C@H](Cc1ccccc1)NC(=O)O[C@H]1CO[C@H]2OCC[C@H]21)S(=O)(=O)c1ccc(N)cc1` [Darunavir], the “C.Luc. Secretion Assay Secretion EC50” value [2] is reported as “No Activity” and the “ΔE TorsinA Mislocalization Assay Localization EC50” value [3] is reported as “No Activity”.
For `Cc1cccc(C)c1OCC(=O)NC(CCC(Cc1ccccc1)NC(=O)C(C(C)C)N1CCCNC1=O)Cc1ccccc1` (stereo not shown) [Des-hydroxy Lopinavir], the “Cytotox CC-v2” value [1] was −2.2, the “Cytotox Efficacy” value [1] was −77.66 and the “Cytotox Max Resp” value [1] was −66.67. For the same molecule, the AC50 [1] was 20.9 µM, the “% pathology CC-v2 (dose response Curve Class)” value [3] was −3 and the AC50 [3] was 8.33 µM. For the same molecule, the “% pathology Max Resp” value [3] was −33.96% and the “% pathology Efficacy” value [3] was −82.44%.
In the case of `CC(C)(C)NC(=O)[C@@H]1CN(Cc2cccnc2)CCN1C[C@@H](O)C[C@@H](Cc1ccccc1)C(=O)N[C@H]1c2ccccc2C[C@H]1O` [Indinavir sulfate], the “Cytotox CC-v2” value [1] is reported as −3, the “Cytotox Efficacy” value [1] is reported as −80.64 and the “Cytotox Max Resp” value [1] is reported as −67.80. For the same molecule, the AC50 [4] was 37.2 µM, the AC50 ([3]; Homo sapiens, Flp-In-T-REx-293) was 29.6 µM and the “% pathology Max Resp” value [3] was −97.76%. The “% pathology Efficacy” value [3] was −114.60%.
With `CC(C)(C)NC(=O)[C@@H]1CN(Cc2cccnc2)CCN1C[C@@H](O)C[C@@H](Cc1ccccc1)C(=O)N[C@H]1c2ccccc2C[C@H]1O` [Indinavir, indinavir] the “toxicity (cell count, cellular morphology; in words)” value [1] was “no cellular toxicity observed at effective doses”, the EC50 at 48 h [4] was 35.2 µM and the “C.Luc. Secretion Assay Secretion EC50” value [2] was “No Activity”. For the same molecule, the EC50 ([3]; Homo sapiens, Flp-In-T-REx-293) was 26.5 µM, the Emax ([3]; Homo sapiens, Flp-In-T-REx-293) was 114% and the “effect on delta-E Torsin1a localization (in words)” value [3] was “corrected TorsinA localization in a dose-dependent fashion”.
For `CS(=O)(=O)O.Cc1c(O)cccc1C(=O)N[C@@H](CSc1ccccc1)[C@H](O)CN1C[C@H]2CCCC[C@H]2C[C@H]1C(=O)NC(C)(C)C.O` [Nelfinavir mesylae hydrate], the “Cytotox CC-v2” value [1] was −1.1, the “Cytotox Efficacy” value [1] was −98.05 and the “Cytotox Max Resp” value [1] was −95.64. The AC50 [1] was 6.05 µM, the “% pathology CC-v2 (dose response Curve Class)” value [3] was −1.1 and the AC50 [3] was 2.7 µM. For the same molecule, the “% pathology Max Resp” value [3] was −92.46% and the “% pathology Efficacy” value [3] was −75.26%.
With `Cc1c(O)cccc1C(=O)N[C@@H](CSc1ccccc1)[C@H](O)CN1C[C@H]2CCCC[C@H]2C[C@H]1C(=O)NC(C)(C)C` [Nelfinavir, nelfinavir] the “toxicity (cell count, cellular morphology; in words)” value [1] was “no cellular toxicity observed at effective doses”, the EC50 at 48 h [4] was 6.05 µM and the “C.Luc. Secretion Assay Secretion EC50” value [2] was “No Activity”. For the same molecule, the EC50 ([3]; Homo sapiens, Flp-In-T-REx-293) was 3.49 µM, the Emax ([3]; Homo sapiens, Flp-In-T-REx-293) was 80% and the “effect on delta-E Torsin1a localization (in words)” value [3] was “corrected TorsinA localization in a dose-dependent fashion”.
In the case of `CC(C)c1nc(CN(C)C(=O)N[C@H](C(=O)N[C@@H](Cc2ccccc2)C[C@H](O)[C@H](Cc2ccccc2)NC(=O)OCc2cncs2)C(C)C)cs1` [Ritonavir, ritonavir], the “Cytotox CC-v2” value [1] is reported as 4, the “toxicity (cell count, cellular morphology; in words)” value [1] is reported as “no cellular toxicity observed at effective doses” and the EC50 [2] is reported as 3.72 µM. For the same molecule, the Emax [2] was 49%, the “correction of secretory deficits (in words)” value [2] was “corrected secretory deficits” and the EC50 ([3]; Homo sapiens, Flp-In-T-REx-293) was 4.11 µM. The Emax ([3]; Homo sapiens, Flp-In-T-REx-293) was 87%, the AC50 ([3]; Homo sapiens, Flp-In-T-REx-293) was 2.96 µM and the “% pathology Max Resp” value [3] was −82.60%. For the same molecule, the “% pathology Efficacy” value [3] was −92.96% and the “effect on delta-E Torsin1a localization (in words)” value [3] was “corrected TorsinA localization in a dose-dependent fashion; also recorded: restored”.
With `CC(C)(C)NC(=O)[C@@H]1C[C@@H]2CCCC[C@@H]2CN1C[C@@H](O)[C@H](Cc1ccccc1)NC(=O)[C@H](CC(N)=O)NC(=O)c1ccc2ccccc2n1` [Saquinavir mesylate] the AC50 [4] was 20.9 µM, the AC50 ([3]; Homo sapiens, Flp-In-T-REx-293) was 8.33 µM and the “% pathology Max Resp” value [3] was −84.62%. The “% pathology Efficacy” value [3] was −85.98%.
`CC(C)(C)NC(=O)[C@@H]1C[C@@H]2CCCC[C@@H]2CN1C[C@@H](O)[C@H](Cc1ccccc1)NC(=O)[C@H](CC(N)=O)NC(=O)c1ccc2ccccc2n1` [Saquinavir, saquinavir] gave an EC50 at 48 h [4] of 23.6 µM, an EC50 [2] of 8.09 µM and an Emax [2] of 34%. For the same molecule, the “correction of secretory deficits (in words)” value [2] was “corrected secretory deficits”, the EC50 ([3]; Homo sapiens, Flp-In-T-REx-293) was 9.41 µM and the Emax ([3]; Homo sapiens, Flp-In-T-REx-293) was 88%. For the same molecule, the “effect on delta-E Torsin1a localization (in words)” value [3] was “corrected TorsinA localization in a dose-dependent fashion”.
With `Cc1c(O)cccc1C(=O)N[C@@H](CSc1ccccc1)[C@H](O)CN1C[C@H]2CCCC[C@H]2C[C@H]1C(=O)NC(C)(C)C` [Viracept] the “Cytotox CC-v2” value [1] was −1.1, the “Cytotox Efficacy” value [1] was −106.32 and the “Cytotox Max Resp” value [1] was −97.72. For the same molecule, the AC50 [4] was 10.5 µM, the AC50 ([3]; Homo sapiens, Flp-In-T-REx-293) was 5.26 µM and the “% pathology Max Resp” value [3] was −94.06%. The “% pathology Efficacy” value [3] was −119.39%.
With `N=C(N)N/N=C/c1c(Cl)cccc1Cl` [guanabenz] the “effect on delta-E Torsin1a localization (in words)” value [3] was “no effect”.
For `CCCC(CCC)C(=O)O` [valproic acid], the “effect on delta-E Torsin1a localization (in words)” value [3] was “no effect”.
